Measured values from patent publication EP0326936A2, “Use of 2-(phenyl-amino)-2-imidazolines in the application of shock therapy” (BOEHRINGER INGELHEIM KG, priority 1988, dated 1989).

Experiments:
hämorrhagischen Schock [1] = experiment: Second shock model: two-day observation phase, no preparation of the M. cremaster; assay type: in vivo; details: for Überlebende: number of survivors, N=15 per compound, Kontrolle 12 of 40
From the text: (§1) Die Eignung von Alinidin und anderen Verbindungen der allgemeinen Formel I zur erfindungsgemäßen Anwendung bei der Schocktherapie wurde in tierexperimentellen Untersuchungen an einem Cremaster-Modell bestätigt. Dieses Modell stellt eine etablierte Methode dar, (S. Hergenröder "Mikrozirkulation im hämorrhagischen Schock", Diplomarbeit am Fachbereich Biologie der Joh.-Gutenberg-Universität, Mainz 1987). An diesem Modell werden Einflüsse auf den systemischen Blutdruck, die Herzfrequenz, den daraus errechneten Schockindex sowie wichtige mikrozirkulatorische Parameter, wie Arteriolendurchmesser, die Eryhthrozytenfließgeschwindigkeit und die daraus errechnete Mikroperfusion (Organdurchblutung) und die Überlebensrate bestimmt. Der Versuchsablauf besteht aus einer präparativen Kontrollphase, gefolgt von einer spontanen Entblutung mit einem raschen Blutdruckabfall auf 25 mm Hg, einer isovolämischen intravenösen 10-minütigen Infusion mit physiologischer NaCl-Lösung (Kontrolltiere) bzw. physiologischer NaCl-Lösung mit darin gelösten Wirkstoffen und einer abschließenden Nachbeobachtungsphase (60 - 120 Minuten). Das zweite Modell unterscheidet sich durch eine zweitägige Nachbeobachtungsphase ohne Präparation des M. cremaster.

hämorrhagischen Schock [2] = experiment: Cremaster model of haemorrhagic shock (bleeding to 25 mm Hg, 10-minute isovolaemic i.v. infusion, 60-120 min observation); assay type: in vivo; details: Alinidin 1 mg/kg, N=6
From the text: as §1, with “cremaster. […]” for “cremaster.”

| SMILES | Überlebende (hämorrhagischen Schock [1]) | Überlebensrate (hämorrhagischen Schock [2]; NaCl control group 4 of 20 animals surviving after 60 minutes) [%] | systemische, insbesondere mikrozirkulatorische Parameter (hämorrhagischen Schock [2]; effects in NaCl control group small and short-lived) | überlebten (Tiere) (hämorrhagischen Schock [1]; survivors out of 15 pretreated animals) |
| --- | --- | --- | --- | --- |
| CC#CCN(C1=NCCN1)c1c(Cl)cccc1Cl [B, 2-[N-2,6-Dichlorphenyl-N-2-butinylamino]imidazolin-(2)] | 10 |  |  |  |
| C=CCN(C1=NCCN1)c1c(Cl)cccc1Cl [C, 2-[N-2,6-Dichlorphenyl-N-allylamino]imidazolin-(2)] | 13 | 100 | Erholung | 13 |
| CCc1cccc(CC)c1N=C1NCCN1 [A, 2-[2,6-Diethylphenylimino]imidazolidin] | 10 |  |  |  |
